The values that follow are results of earlier work, collected in patent US20120093882A1 (priority 2009, published 2012).

The conditions of data set [1]: after oral administration.
For data set [2] the following is noted: dissolved in ultra-pure water, natural midsummer sunlight, maximum of 145 h.

Regarding `O=C(O)Cc1ccccc1Nc1c(Cl)cccc1Cl` [Diclofenac], in data set [1], the absorption entry is given as “almost completely absorbed” and the hepatic first-pass metabolism is given as 50%. In addition, the “degradation on exposure to sunlight” value in data set [2] is recorded as “Fast degradation”.
